Numbered stars: 1 amine (or outer) side, 2 acyl side, 3 side chain; on linkers, the order of the positions; unused ones are H or OH. Bridge positions count the residues as written; N and C are the ends. Square brackets hold non-standard residues; d marks the D form. Peptide text beside a SMILES is read from it. Trp(1-CH2CONHSO2Me) = CS(=O)(=O)NC(=O)Cn1cc(C[C@H](N)C(=O)O)c2ccccc21; X14 = C[C@H](C(=O)O)n1c(=O)n(C[C@H](N[*:1])C(=O)[*:2])c2ccccc21; X11 = O=C(O)Cc1nc(C[C@H](N[*:1])C(=O)[*:2])c2n1CCCC2; X12 = O=C(O)Cc1nn(C[C@H](N[*:1])C(=O)[*:2])c2ccccc12; X7 = O=C(O)Cc1nc(C[C@H](N[*:1])C(=O)[*:2])n2ccccc12; Hyp = O=C(O)[C@@H]1C[C@@H](O)CN1; NMeNle = CCCC[C@H](NC)C(=O)O; Pen = CC(C)(S)[C@H](N)C(=O)O; Pip = O=C(O)[C@@H]1CCCCN1; NMeA = CN[C@@H](C)C(=O)O; Dab = NCC[C@H](N)C(=O)O; Dap = NC[C@H](N)C(=O)O

As a reminder, the IC50 is the concentration at which inhibition is half-maximal. Read a low IC50 as inhibition by little substance.

In this test the target is T1, PD-1-Ig binding to PD-L1-TVMV-His (PD-L1-His) (Homo sapiens, UniProt Q9NZQ7).
T1 construct: hPDL1 (19-239)-TVMV-His; TVMV protease cleavage site (C); made in house; host or cells: HEK293T cells
T1 sequence (Q9NZQ7 with tags, fused parts or gaps): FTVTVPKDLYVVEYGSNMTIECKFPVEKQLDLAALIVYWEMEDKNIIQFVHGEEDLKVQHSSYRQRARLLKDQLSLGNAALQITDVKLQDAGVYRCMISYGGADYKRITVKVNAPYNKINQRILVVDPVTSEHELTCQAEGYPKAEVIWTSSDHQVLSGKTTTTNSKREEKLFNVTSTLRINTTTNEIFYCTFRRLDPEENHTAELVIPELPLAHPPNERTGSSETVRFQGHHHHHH
Description: PD-1/PD-L1 Homogenous Time-Resolved Fluorescence (HTRF) binding assay. The following applies: PD-1-Ig (20 nM)/PD-L1-His (10 nM); range class. The source says: The ability of the macrocyclic peptides of the present disclosure to bind to PD-L1 was investigated using a PD-1/PD-L1 Homogenous Time-Resolved Fluorescence (HTRF) binding assay.
Homogenous Time-Resolved Fluorescence (HTRF) Assays of Binding of Soluble PD-1 to Soluble PD-L1. Soluble PD-1 and soluble PD-L1 refers to proteins with carboxyl-end truncations that remove the transmembrane-spanning regions and are fused to heterologous sequences, specifically the Fc portion of the human immunoglobuling G sequence (Ig) or the hexahistidine epitope tag (His). All binding studies were performed in an HTRF assay buffer consisting of dPBS supplemented with 0.1% (w/v) bovine serum albumin and 0.05% (v/v) Tween-20. For the PD-1-Ig/PD-L1-His binding assay, inhibitors were pre-incubated with PD-L1-His (10 nM final) for 15 m in 4 μl of assay buffer, followed by addition of PD-1-Ig (20 nM final) in 1 μl of assay buffer and further incubation for 15 m. PD-L1 fusion proteins from either human, cynomologous macaques, mouse, or other species were used. HTRF detection was achieved using europium crypate-labeled anti-Ig monoclonal antibody (1 nM final) and allophycocyanin (APC) labeled anti-His monoclonal antibody (20 nM final). Antibodies were diluted in HTRF detection buffer and 5 μl was dispensed on top of binding reaction. The reaction was allowed to equilibrate for 30 minutes and signal (665 nm/620 nm ratio) was obtained using an EnVision fluorometer. Additional binding assays were established between PD-1-Ig/PD-L2-His (20 and 5 nM, respectively), CD80-His/PD-L1-Ig (100 and 10 nM, respectively) and CD80-His/CTLA4-Ig (10 and 5 nM, respectively). Binding/competition studies between biotinylated Compound No. 71 and human PD-L1-His were performed as follows. Macrocyclic peptide inhibitors were pre-incubated with PD-L1-His (10 nM final) for 60 minutes in 4 μl of assay buffer followed by addition of biotinylated Compound No. 71 (0.5 nM final) in 1 μl of assay buffer. Binding was allowed to equilibrate for 30 minutes followed by addition of europium crylated labeled Streptavidin (2.5 pM final) and APC-labeled anti-His (20 nM final) in 5 μl of HTRF buffer. The reaction was allowed to equilibrate for 30 m and signal (665 nm/620 nm ratio) was obtained using an EnVision fluorometer.
Recombinant Proteins. Carboxyl-truncated human PD-1 (amino acids 25-167) with a C-terminal human Ig epitope tag [hPD-1 (25-167)-3S-IG] and human PD-L1 (amino acids 18-239) with a C-terminal His epitope tag [hPD-L1(19-239)-tobacco vein mottling virus protease cleavage site (TVMV)-His] were expressed in HEK293T cells and purified sequentially by recombinant Protein A affinity chromatography and size exclusion chromatography. Human PD-L2-His (Sino Biologicals), CD80-His (Sino Biologicals), CTLA4-Ig (RnD Systems) were all obtained through commercial sources.
Take `CCCC[C@H]1C(=O)N(C)[C@@H](CCCC)C(=O)N[C@@H](CC(C)C)C(=O)N[C@H](C(=O)NCC(N)=O)CSCC(=O)N[C@@H](Cc2ccc(O)cc2)C(=O)N(C)[C@@H](C)C(=O)N[C@@H](CC(N)=O)C(=O)N2CCC[C@H]2C(=O)N[C@@H](CN)C(=O)N[C@@H](CC(C)C)C(=O)N2C[C@H](O)C[C@H]2C(=O)N[C@@H](Cc2c[nH]c3ccccc23)C(=O)N[C@@H](CCN)C(=O)N[C@@H](Cc2nc(CC(=O)O)n3c2CCCC3)C(=O)N1C` [Example 1009] ({CH2CO}-Y[NMeA]NP[Dap]L[Hyp]W[Dab][X11][NMeNle][NMeNle]LCG-NH2; thioether N-14): the IC50 fell in the range of 10 to 99 nM.

On to `CCCC[C@H]1C(=O)N(C)[C@@H](CCCC)C(=O)N[C@@H](CC(C)C)C(=O)N[C@H](C(N)=O)C(C)(C)SCC(=O)N[C@@H](Cc2ccc(O)cc2)C(=O)N2CCCC[C@H]2C(=O)N[C@@H](CC(=O)O)C(=O)N2CCC[C@H]2C(=O)N[C@@H](CN)C(=O)N[C@@H](CCC(=O)O)C(=O)N2C[C@H](O)C[C@H]2C(=O)N[C@@H](Cc2c[nH]c3ccccc23)C(=O)N[C@@H](CCN)C(=O)N[C@@H](Cc2cn(CC(=O)NS(C)(=O)=O)c3ccccc23)C(=O)N1C` [Example 1011] ({CH2CO}-Y[Pip]DP[Dap]E[Hyp]W[Dab][Trp(1-CH2CONHSO2Me)][NMeNle][NMeNle]L[Pen]-NH2; thioether N-14), for which the half-inhibitory concentration (IC50) was 1 to 9.9 nM.

Compound `CCCC[C@H]1C(=O)N(C)[C@@H](CCCC)C(=O)N[C@@H](CC(C)C)C(=O)N[C@H](C(=O)NCC(N)=O)CSCC(=O)N[C@@H](Cc2ccc(O)cc2)C(=O)N(C)[C@@H](C)C(=O)N[C@@H](CC(N)=O)C(=O)N2CCC[C@H]2C(=O)N[C@@H](CN)C(=O)N[C@@H](CC(C)C)C(=O)N2C[C@H](O)C[C@H]2C(=O)N[C@@H](Cc2c[nH]c3ccccc23)C(=O)N[C@@H](CCN)C(=O)N[C@@H](Cn2c(=O)n([C@H](C)C(=O)O)c3ccccc32)C(=O)N1C` [Example 1014] ({CH2CO}-Y[NMeA]NP[Dap]L[Hyp]W[Dab][X14][NMeNle][NMeNle]LCG-NH2; thioether N-14) returned an IC50 of 1 to 9.9 nM.

For `CCCC[C@H]1C(=O)N(C)[C@@H](CCCC)C(=O)N[C@@H](CC(C)C)C(=O)N[C@H](C(=O)NCC(N)=O)CSCC(=O)N[C@@H](Cc2ccc(O)cc2)C(=O)N(C)[C@@H](C)C(=O)N[C@@H](CC(N)=O)C(=O)N2CCC[C@H]2C(=O)N[C@@H](CN)C(=O)N[C@@H](CC(C)C)C(=O)N2C[C@H](O)C[C@H]2C(=O)N[C@@H](Cc2c[nH]c3ccccc23)C(=O)N[C@@H](CCN)C(=O)N[C@@H](Cc2nc(CC(=O)O)c3ccccn23)C(=O)N1C` [Example 1017] ({CH2CO}-Y[NMeA]NP[Dap]L[Hyp]W[Dab][X7][NMeNle][NMeNle]LCG-NH2; thioether N-14), the IC50 lay within 1 to 9.9 nM.

Take `CCCC[C@H]1C(=O)N(C)[C@@H](CCCC)C(=O)N[C@@H](CC(C)C)C(=O)N[C@H](C(=O)NCC(N)=O)CSCC(=O)N[C@@H](Cc2ccc(O)cc2)C(=O)N(C)[C@@H](C)C(=O)N[C@@H](CC(=O)O)C(=O)N2CCC[C@H]2C(=O)N[C@@H](Cc2cnc[nH]2)C(=O)N[C@@H](CCCCN)C(=O)N2C[C@H](O)C[C@H]2C(=O)N[C@@H](Cc2c[nH]c3ccccc23)C(=O)N[C@@H](CCCCN)C(=O)N[C@@H](Cc2cn(CC(=O)NS(C)(=O)=O)c3ccccc23)C(=O)N1C` [Example 1019] ({CH2CO}-Y[NMeA]DPHK[Hyp]WK[Trp(1-CH2CONHSO2Me)][NMeNle][NMeNle]LCG-NH2; thioether N-14): the IC50 was 1 to 9.9 nM.

In turn, `CCCC[C@H]1C(=O)N(C)[C@@H](CCCC)C(=O)N[C@@H](CC(C)C)C(=O)N[C@H](C(=O)NCC(N)=O)CSCC(=O)N[C@@H](Cc2ccc(O)cc2)C(=O)N(C)[C@@H](C)C(=O)N[C@@H](CC(N)=O)C(=O)N2CCC[C@H]2C(=O)N[C@@H](CN)C(=O)N[C@@H](CC(C)C)C(=O)N2C[C@H](O)C[C@H]2C(=O)N[C@@H](Cc2c[nH]c3ccccc23)C(=O)N[C@@H](CCN)C(=O)N[C@@H](Cn2nc(CC(=O)O)c3ccccc32)C(=O)N1C` [Example 1012] ({CH2CO}-Y[NMeA]NP[Dap]L[Hyp]W[Dab][X12][NMeNle][NMeNle]LCG-NH2; thioether N-14) registered an IC50 of 10 to 99 nM.

Source of the values: patent US10358463B2, “Immunomodulators” (BRISTOL-MYERS SQUIBB COMPANY, priority 2016, dated 2019).
